Twelve compounds from article PMC8911640, “Synthesis and Structure–Activity Relationship of Thioacetamide-Triazoles against Escherichia coli” (Molecules, 2022) can be followed below.

≈ marks a conversion by molar mass, not a printed value. Where “and” joins values, the source holds several entries; their conditions need not be identical. Equal entries are not always repeated. Where two headings read alike, the source gives them in different places. Where only a bound is given, the exact number is not on record here.

One data set relates to E. coli K12 MG1655. Description: MIC testing by CLSI broth microdilution in M9-based minimal media ATCC 2511, with or without methionine. It counts as cell-based, Escherichia coli. The note with it: for MIC90: Escherichia coli; for antibacterial activity against E. coli in words: E. coli K12. The protocol:
To explore the SAR around the right hand aryl portion of the TAT series (Table 1), compounds were evaluated for their in vitro antibacterial activity against E. coli in the M9-based minimal media ATCC 2511. […]. An MIC shift between the two medias was used to indicate that antibacterial activity of the compounds remained on target, and this was happily seen with all of the most MIC active compounds generated in this study. Within the first series of compounds in Table 1, modifications to the phenyl ring are generally well tolerated. MICs remain within 2-fold of the initial hit 1 for the fluoro- and cyano- substituted compounds 1–8. […]. Incorporating the electron-donating group -OMe and sterically bulky iodine group in both ortho and para position, 17–20, maintained activity, whereas the introduction of the strong electron-withdrawing -CF3 group, 21 and 22, led to poorer MIC activity. […] The phenyl ring isosteres—thiazoles 25 and 26—both retained good MIC activity. Adding a methyl branch to the thioacetamide linker 28 and 29 led to a striking loss of activity. Replacement of the aryl group with the aliphatic groups cyclohexyl 31, cyclopentyl 32, tert-butyl groups 33 all reduced activity.
MICs were determined following CLSI broth microdilution susceptibility M100 guidelines. Compound solutions were prepared in DMSO and serially diluted 1:2 in 100 μL/well in 96 well round-bottom plates. E. coli K12 MG1655 was acquired from ATCC and strictly maintained in the M9-based media ATCC 2511. ATCC 2511 was also used for all further cultivation and MIC testing. Bacteria were grown from a single colony to a mid-log OD600 and frozen in 0.5 mL aliquots. These aliquots were used to directly inoculate the assay plates by diluting to an OD600 of 0.001 and plating 100 μL per well, allowing for ~10^5 CFU to be added to each well.

The nature of the next data set: Plasma stability (mouse). Type of data set: in vitro ADME. The note with it: read-out: Plasma Stability (Mouse) t1/2 (converted). Here is the method: (§1) The in vitro ADME values (solubility, mouse plasma stability, human plasma stability, mouse metabolic stability, and human metabolic stability) were determined as previously reported.
The next data set can be described thus: Solubility. Type of data set: physicochemical. Here is the method: as §1
Another data set in a line: Plasma stability (human). The note with it: read-out: Plasma Stability (Human) t1/2 (converted). Type of data set: in vitro ADME. Here is the method: as §1
Data set [1] is described as follows: Metabolic (microsomal) stability (human). The note with it: microsomes; for half-life: read-out: Metabolic Stability (Human) t1/2 (converted). Type of data set: in vitro ADME. The protocol:
as §1

Data set [2] in a line: Metabolic (microsomal) stability (mouse). Type of data set: in vitro ADME. The note with it: microsomes; for half-life: read-out: Metabolic Stability (Mouse) t1/2 (converted). Here is the method: as §1
The next data set deals with E. coli K12. The data set is described as follows: Whole cell accumulation in E. coli K12 (LC-MS/MS). The arrangement: dose or concentration left out as unconfirmed. The note with it: 10 min, 37 °C; average of three biological replicates.
A short description of data set [3]: Pharmacokinetic evaluation in mice, single intravenous dose. It counts as in vivo. The note with it: 10 mg/kg, plasma. The protocol:
Pharmacokinetic parameters of 25 in plasma following a single intravenous dose of 10mg/kg administration to male Balb/c mice were done at SAI LifeSciences Ltd., Telangana, India (Table S2). Briefly, nine male mice were used in this study. All the animals were administered with 25 solution formulation in 5% NMP, 5% Solutol HS-15 and 90% Normal saline intravenously at 10 mg/kg dose. Blood samples (~60 μL) were collected from retro orbital plexus under light isoflurane anesthesia at following time points at Pre-dose, 0.08, 0.25, 0.5, 1, 2, 4, 8 and 24 h. Blood samples were collected from a set of three mice at each time point (sparse sampling) in labeled microcentrifuge tube containing 20% K2EDTA solution as anticoagulant. Plasma samples were separated by centrifugation of whole blood and stored below −70 ± 10 °C until bioanalysis. All samples were processed for analysis by protein precipitation using acetonitrile (ACN) and analyzed with fit-for-purpose LC/MS/MS method (LLOQ: 5.04 ng/mL). Pharmacokinetic parameters were calculated using the non-compartmental analysis tool of Phoenix WinNonlin (Version 7.0). All procedures of the study were in accordance with the guidelines provided by the Committee for the Purpose of Control and Supervision of Experiments on Animals (CPCSEA) as published in The Gazette of India, 15 December 1998. Prior approval of the Institutional Animal Ethics Committee (IAEC) was obtained before initiation of the study.

The mark [4] stands for this setting: MG1655, read-out: E. coli K12 MIC90.
Where [5] appears, read: No Supplement (N.S.), ATCC 2511 media, 16 h, 37 °C, read-out: E. coli K12 MIC90.
The mark [6] stands for this setting: pH 7.4, aqueous buffer, pH 7.4 (Table S1), read-out: Solubility Avg. Sol.
[7] abbreviates: pH = 7.4, average of triplicate ± standard deviation.
The mark [8] stands for this setting: No Supplement (N.S.), ATCC 2511 media, 16 h, 37 °C.
Setting [9] is: pH 7.4, aqueous buffer, pH = 7.4, average of triplicate ± standard deviation, read-out: Avg. Sol.

What is called MIC90 is an inhibitory concentration at the 90% level, which refers to growth in some studies and to a panel of isolates in others. For orientation: CLint scaled means the capacity of the preparation to metabolise the compound, expressed as a volume cleared per time. Consider `N#Cc1ccccc1NC(=O)CSc1cnn[nH]1` [Compound 3], for which the MIC90 in the data set on E. coli K12 MG1655 (setting [4]) was 12.5 µg/mL (≈ 48.2 µM); with E. coli K12 MG1655 (setting [5]), 3.1 µg/mL (≈ 12 µM). For the same compound, the half-life in “Plasma stability (mouse)” was 1.1 ± 0.02 h; in the data set “Plasma stability (human)”, 23 ± 1.1 h; in data set [1] it was 3.7 ± 0.3 h; in data set [2], 1.13 ± 0.05 h. The “%Soluble” value in “Solubility” (pH 7.4 (Table S1)) is 73.3%. Further, in “Solubility” (setting [6]), the solubility is 19 µg/mL and 73.3 µM. Further, the “Avg. Sol” value in the data set “Solubility” (setting [7]) is reported as 19 ± 1.5 µg/mL. The CLint scaled in data set [1] turned out to be 5.7 mL/min/kg; in data set [2] it was 50.5 mL/min/kg.

On to `N[C@H]1CCN(c2ccc(NC(=O)CSc3cnn[nH]3)cc2)C1` [Compound 50], for which the “Whole Cell Accumulation in E. coli” value in the data set on E. coli K12 is listed as 9.0 ± 2 μM/10^10 CFU. Further, the MIC90 with E. coli K12 MG1655 (setting [5]) was greater than 200 µg/mL.

As usually defined, the AUC(0-inf) is the area under the concentration-time curve extrapolated to infinity. The AUC(0-t) is exposure summed from dosing to a finite time, without extrapolation to infinity. What is called clearance is the rate of elimination divided by the concentration. Consider `O=C(CSc1cnn[nH]1)Nc1nccs1` [Compound 25], for which the MIC90 came to 12.5 µg/mL (≈ 51.8 µM) in the data set on E. coli K12 MG1655 (setting [4]) and 3.1 µg/mL (≈ 12.8 µM) in the data set on E. coli K12 MG1655 (setting [5]). Besides, the “E. coli K12 MIC90” value in the data set with E. coli K12 MG1655 (setting [8]) was no more than 3.1 µg/mL. Further, the half-life was 13.3 ± 1.6 h in the data set “Plasma stability (mouse)”; 32.1 ± 5.4 h in the data set “Plasma stability (human)”; 3.6 ± 0.3 h in data set [1]; 0.55 h in data set [3] (mouse, male Balb/c mice, read-out: T(1/2), elimination half-life (converted)); 2 ± 0.1 h in data set [2]. The “%Soluble” value in the data set “Solubility” (pH 7.4 (Table S1)) is reported as 87.3%. Besides, the solubility in the data set “Solubility” (setting [6]) is 21.1 µg/mL and 87.3 µM. Further, in “Solubility” (setting [7]), the “Avg. Sol” value is listed as 21 ± 1.8 µg/mL. Besides, the CLint scaled in data set [1] came to 5.8 mL/min/kg; in data set [2], 29.1 mL/min/kg. Further, the AUCinf in data set [3] (male Balb/c mice) was determined as 2807 ng·h/mL. This compound had an AUC(0-inf) in data set [3] (male, Balb/c, mouse, iv) of 2810 ng·h/mL. For the same compound, the AUC(0-t) in data set [3] (mouse, male Balb/c mice) was determined as 2800 ng·h/mL. In data set [3] (mouse, male Balb/c mice), this compound gave a C0 of 7710 ng/mL. The compound also registered a clearance in data set [3] (mouse, male Balb/c mice) of 59.4 mL/min/kg. In data set [3] (mouse, male Balb/c mice, read-out: Vss), the Vd came to 1.16 L/kg.

For the compound `O=C(NCCSc1cnn[nH]1)c1ccc(O)c(O)c1` [Compound 59], in the data set on E. coli K12, the “Whole Cell Accumulation in E. coli” value was 1.0 ± 0.1 μM/10^10 CFU. The “antibacterial activity against E. coli in words” value in the data set with E. coli K12 MG1655 is reported as “moderate activity”. In addition, the MIC90 in the data set with E. coli K12 MG1655 (setting [5]) stood at 50 µg/mL (≈ 178 µM).

As to `O=C(CSc1cnn[nH]1)Nc1ccccn1` [Compound 9], the MIC90 in the data set with E. coli K12 MG1655 (setting [4]) was 12.5 µg/mL (≈ 53.1 µM); with E. coli K12 MG1655 (setting [5]) it was 1.6 µg/mL (≈ 6.8 µM). In addition, the “E. coli K12 MIC90” value with E. coli K12 MG1655 (setting [8]) was no more than 3.1 µg/mL. Also, the half-life in “Plasma stability (mouse)” was 2.7 ± 0.2 h; in the data set “Plasma stability (human)”, 19.9 ± 1.9 h; in data set [1], 2.7 ± 0.2 h; in data set [2], 0.71 ± 0.02 h. For the same compound, the “%Soluble” value in “Solubility” (pH 7.4 (Table S1)) amounted to 87.4%. For the same compound, the solubility in the data set “Solubility” (setting [6]) is 20.6 µg/mL and 87.4 µM; in the data set “Solubility” (setting [9]), 20 ± 0.3 µg/mL (≈ 85 µM). The CLint scaled in data set [1] was determined as 7.7 mL/min/kg; in data set [2], 80.4 mL/min/kg.

Take `CCCSc1ccc2nc(NC(=O)OC)[nH]c2c1` [Albendazole, reference compound]: the solubility in the data set “Solubility” (aqueous buffer, pH 7.4 (Table S1), read-out: Solubility Avg. Sol) was 5.33 µg/mL and 20.1 µM. Also, the “%Soluble” value in the data set “Solubility” (pH 7.4 (Table S1)) came out at 20.1%.

As to `O=C(CSc1cnn[nH]1)Nc1ccc(N2C[C@@H]3NCCO[C@H]3C2)cc1` [Compound 53], the “Whole Cell Accumulation in E. coli” value with E. coli K12 amounted to 19 ± 1 μM/10^10 CFU. For the same compound, the MIC90 in the data set with E. coli K12 MG1655 (setting [5]) was greater than 200 µg/mL.

With `NC(=O)N1c2ccccc2C=Cc2ccccc21` [Carbamazepine, reference compound], the “%Soluble” value in “Solubility” (pH 7.4 (Table S1)) is 85.1%. Also, the solubility in “Solubility” (setting [6]) was 20.1 µg/mL and 85.1 µM.

With `O=C(CSc1cnn[nH]1)Nc1ccccc1F` [Compound 1], the MIC90 with E. coli K12 MG1655 (setting [4]) was determined as 12.5 µg/mL (≈ 49.5 µM); in the data set with E. coli K12 MG1655 (setting [5]) it was 1.6 µg/mL (≈ 6.34 µM). Also, the “E. coli K12 MIC90” value in the data set with E. coli K12 MG1655 (setting [8]) was no more than 3.1 µg/mL. Moreover, the half-life in the data set “Plasma stability (mouse)” is 0.39 ± 0.01 h; in “Plasma stability (human)”, 34.8 ± 0.3 h; in data set [1], 3 ± 0.2 h; in data set [2], 0.27 ± 0.01 h. In addition, the “%Soluble” value in the data set “Solubility” (pH 7.4 (Table S1)) turned out to be 65.2%. In addition, the solubility in the data set “Solubility” (setting [6]) was 16.4 µg/mL and 65.2 µM; in the data set “Solubility” (setting [9]) it was 16 ± 0.8 µg/mL (≈ 63.4 µM). Moreover, the CLint scaled in data set [1] turned out to be 7 mL/min/kg; in data set [2] it was 209 mL/min/kg.

On to `CN1CCN(c2ccc(NC(=O)CSc3cnn[nH]3)cc2)CC1` [Compound 56], for which the “Whole Cell Accumulation in E. coli” value with E. coli K12 turned out to be 4.7 ± 2 μM/10^10 CFU. Besides, in the data set with E. coli K12 MG1655 (setting [5]), the MIC90 was greater than 200 µg/mL.

Turning to `O=C(CSc1cnn[nH]1)Nc1ccc(F)cc1` [Compound 2], the MIC90 in the data set on E. coli K12 MG1655 (setting [4]) came out at 12.5 µg/mL (≈ 49.5 µM); in the data set with E. coli K12 MG1655 (setting [5]), 3.1 µg/mL (≈ 12.3 µM). The half-life in “Plasma stability (mouse)” was 2.5 ± 0.2 h; in the data set “Plasma stability (human)”, 36.3 ± 5.5 h; in data set [1] it was 4.7 ± 0.4 h; in data set [2] it was 0.65 ± 0.03 h. Further, the “%Soluble” value in the data set “Solubility” (pH 7.4 (Table S1)) turned out to be 73.4%. The solubility was 18.5 µg/mL and 73.4 µM in the data set “Solubility” (setting [6]); 18 ± 2.3 µg/mL (≈ 71.4 µM) in “Solubility” (setting [9]). The CLint scaled in data set [1] was found to be 4.4 mL/min/kg; in data set [2], 87.4 mL/min/kg.

Regarding `O=C(NCCSc1cnn[nH]1)c1ccccc1F` [Compound 58], the “Whole Cell Accumulation in E. coli” value with E. coli K12 is given as 7.0 ± 1 μM/10^10 CFU. In addition, the “antibacterial activity against E. coli in words” value in the data set with E. coli K12 MG1655 is on record as “moderate activity”. In addition, the MIC90 in the data set on E. coli K12 MG1655 (setting [5]) was determined as 12.5 µg/mL (≈ 46.9 µM).
